From patent US9822382B2, “Process for making ethanol by fermentation” (Evonik Degussa GmbH, priority 2014, dated 2017)

Legend:
[1] = system: Rod bacteria; assay: Rod bacteria cell count and infection rate in fermented mash, sugar cane ethanol production mill trial; assay type: cell-based
Experimental: (§1) Bacterial and yeast cell counts, yeast cell viability and yeast flocculation were determined as described in A. J. Oliveira et al., Curso de treinamento em microbiologia, Piracicaba: FERMENTEC and ESALQ, 1996 and in A. J. Oliveira et al., Métodos para o controle microbiológico na produção de açúcar e álcool, Piracicaba: FERMENTEC, FEALQ and ESALQ, 1996. Bacterial infection rates were calculated as the ratio of the rod bacteria cell count and the yeast cell count.
(§2) Examples 9 to 11 were carried out in a sugar cane ethanol production mill operating 6 fermenters in fed-batch. The fermented mash is sent to a centrifuge which separates yeast cream with an average yeast content of 63% by weight. The yeast cream is diluted with water to an average yeast content of 27% by weight and transferred to a stirred yeast cream recovery tank. Diluted yeast cream is passed continuously from this tank to a stirred yeast treatment tank at a rate of from 42 to 127 m^3/h. Sulfuric acid is added to the yeast treatment tank to maintain a pH in the range from 1.8 to 2.8. The average residence time in both the yeast cream recovery tank and the yeast treatment tank is in the range of from 1.3 to 4.0 h. Fermentation is carried out by charging the acidified yeast concentrate to a fermenter over a 1 to 2 h period, followed by feeding sugar cane mash with a sugar content of 22° Brix and a pH of 5.8 to the fermenter over a 6 h period. Fermentation is continued for a further 2 h without feed and the fermented mash is sent to a centrifuge. Bacterial contamination was monitored by microbiological analysis of samples of fermented mash taken before feeding the mash to a centrifuge. Samples were analyzed for bacterial and yeast cell counts and for yeast cell viability and yeast flocculation.
(§3) In example 9, equilibrium peroxyacetic acid PERACLEAN® 15 of Evonik was dosed to the yeast treatment tank for 28 h in an amount of 60 ppm during days 3 and 4 of the experiment. pH in the yeast treatment tank was maintained in the range of from 1.84 to 2.02.
(§4) In example 10, equilibrium peroxyacetic acid PERACLEAN® 15 of Evonik was dosed to the yeast treatment tank for 43 h during days 6 and 7 of the experiment in an amount that was lowered stepwise from 49 ppm to 20 ppm. pH in the yeast treatment tank was maintained in the range of from 1.97 to 2.60.
(§5) In example 11, equilibrium peroxyacetic acid PERACLEAN® 15 of Evonik was dosed to the yeast cream recovery tank on days 2 and 3 of the experiment for 13 h in an amount of 50 ppm, followed by dosing for 28 h in an amount of 30 ppm. During this period the pH in the yeast cream recovery tank was in the range of from 3.0 to 3.3. Then dosing of peroxyacetic acid to the yeast cream recovery tank was stopped and peroxyacetic acid was dosed to the yeast treatment tank for 18 h in an amount of 30 ppm. During this period the pH in the yeast treatment tank was about 2.0.

[2] = system: Yeast; assay: Yeast viability and yeast flocculation in fermented mash, sugar cane ethanol production mill trial; assay type: cell-based
Experimental: as §1, §2, §3, §4, §5

[3] = Example 9, fermenter 2, day 3, 60 ppm to yeast treatment tank during days 3 and 4, pH 1.84 to 2.02
[4] = Example 9, fermenter 2, day 4, 60 ppm to yeast treatment tank during days 3 and 4, pH 1.84 to 2.02
[5] = Example 9, fermenter 2, day 5, after addition (60 ppm, days 3 and 4) was stopped
[6] = Example 9, fermenter 4, day 3, 60 ppm to yeast treatment tank during days 3 and 4, pH 1.84 to 2.02
[7] = Example 9, fermenter 4, day 4, 60 ppm to yeast treatment tank during days 3 and 4, pH 1.84 to 2.02
[8] = Example 9, fermenter 4, day 6, after addition (60 ppm, days 3 and 4) was stopped
[9] = Example 10, fermenter 2, day 6, 49 ppm lowered stepwise to 20 ppm to yeast treatment tank during days 6 and 7, pH 1.97 to 2.60
[10] = Example 10, fermenter 2, day 7, 49 ppm lowered stepwise to 20 ppm to yeast treatment tank during days 6 and 7, pH 1.97 to 2.60
[11] = Example 10, fermenter 2, day 8, after dosing during days 6 and 7
[12] = Example 10, fermenter 2, day 9, after dosing during days 6 and 7
[13] = Example 10, fermenter 3, day 6, 49 ppm lowered stepwise to 20 ppm to yeast treatment tank during days 6 and 7, pH 1.97 to 2.60
[14] = Example 10, fermenter 3, day 7, 49 ppm lowered stepwise to 20 ppm to yeast treatment tank during days 6 and 7, pH 1.97 to 2.60
[15] = Example 10, fermenter 3, day 8, after dosing during days 6 and 7
[16] = Example 10, fermenter 3, day 9, after dosing during days 6 and 7
[17] = Example 11, fermenter 3, day 2, 50 ppm then 30 ppm to yeast cream recovery tank on days 2 and 3, pH 3.0 to 3.3
[18] = Example 11, fermenter 3, day 4, after recovery tank dosing, 30 ppm to yeast treatment tank for 18 h, pH about 2.0
[19] = Example 11, fermenter 3, day 6, after the dosing periods
[20] = Example 11, fermenter 6, day 2, 50 ppm then 30 ppm to yeast cream recovery tank on days 2 and 3, pH 3.0 to 3.3
[21] = Example 11, fermenter 6, day 3, 50 ppm then 30 ppm to yeast cream recovery tank on days 2 and 3, pH 3.0 to 3.3
[22] = Example 11, fermenter 6, day 5, after the dosing periods

CC(=O)OO [peroxyacetic acid]
Infection rate in % [1, 3]: 11% | Rod bacteria cells/ml [1, 3]: 28*10^6 cells/ml | Infection rate in % [1, 4]: 10% | Rod bacteria cells/ml [1, 4]: 39*10^6 cells/ml | Infection rate in % [1, 5]: 18% | Rod bacteria cells/ml [1, 5]: 51*10^6 cells/ml | Infection rate in % [1, 6]: 11% | Rod bacteria cells/ml [1, 6]: 53*10^6 cells/ml | Infection rate in % [1, 7]: 3% | Rod bacteria cells/ml [1, 7]: 20*10^6 cells/ml | Infection rate in % [1, 8]: 22% | Rod bacteria cells/ml [1, 8]: 57*10^6 cells/ml | bacterial contamination and yeast flocculation ([1]; Example 9, upon addition of 60 ppm to yeast treatment tank, return when addition is stopped): reduced | control of bacterial contamination and yeast flocculation ([1]; Example 10, continuous addition of 20 ppm to the acidified yeast concentrate): sufficient to control bacterial contamination and avoid yeast flocculation | Infection rate in % [1, 9]: 2.8% | Rod bacteria cells/ml [1, 9]: 9.6*10^6 cells/ml | Infection rate in % [1, 10]: 0.5% | Rod bacteria cells/ml [1, 10]: 1.4*10^6 cells/ml | Infection rate in % [1, 11]: 8.1% | Rod bacteria cells/ml [1, 11]: 24*10^6 cells/ml | Infection rate in % [1, 12]: 11% | Rod bacteria cells/ml [1, 12]: 29*10^6 cells/ml | Infection rate in % [1, 13]: 1.5% | Rod bacteria cells/ml [1, 13]: 3.0*10^6 cells/ml | Infection rate in % [1, 14]: 0.2% | Rod bacteria cells/ml [1, 14]: 0.7*10^6 cells/ml | Infection rate in % [1, 15]: 4.4% | Rod bacteria cells/ml [1, 15]: 13*10^6 cells/ml | Infection rate in % [1, 16]: 7.5% | Rod bacteria cells/ml [1, 16]: 22*10^6 cells/ml | effectiveness of addition depending on pH of yeast concentrate ([1]; Example 11, dosing at pH 3.0 to 3.3 versus about 2.0): effective only for an acidified yeast concentrate at a pH of less than 3.0 | Infection rate in % [1, 17]: 11% | Rod bacteria cells/ml [1, 17]: 32*10^6 cells/ml | Infection rate in % [1, 18]: 2% | Rod bacteria cells/ml [1, 18]: 8.4*10^6 cells/ml | Infection rate in % [1, 19]: 18% | Rod bacteria cells/ml [1, 19]: 24*10^6 cells/ml | Infection rate in % [1, 20]: 5% | Rod bacteria cells/ml [1, 20]: 23*10^6 cells/ml | Infection rate in % [1, 21]: 5% | Rod bacteria cells/ml [1, 21]: 14*10^6 cells/ml | Infection rate in % [1, 22]: 10% | Rod bacteria cells/ml [1, 22]: 25*10^6 cells/ml | Yeast flocculation in % [2, 3]: 53% | Yeast viability in % [2, 3]: 79% | Yeast flocculation in % [2, 4]: 5% | Yeast flocculation in % [2, 5]: 58% | Yeast viability in % [2, 5]: 82% | Yeast flocculation in % [2, 6]: 63% | Yeast viability in % [2, 6]: 85% | Yeast flocculation in % [2, 7]: 0% | Yeast flocculation in % [2, 8]: 55% | Yeast flocculation in % [2, 9]: 0% | Yeast flocculation in % [2, 10]: 0% | Yeast viability in % [2, 10]: 75% | Yeast flocculation in % [2, 11]: 0% | Yeast viability in % [2, 11]: 79% | Yeast flocculation in % [2, 12]: 37% | Yeast viability in % [2, 12]: 79% | Yeast flocculation in % [2, 13]: 0% | Yeast flocculation in % [2, 14]: 0% | Yeast viability in % [2, 14]: 70% | Yeast flocculation in % [2, 15]: 0% | Yeast viability in % [2, 15]: 78% | Yeast flocculation in % [2, 16]: 45% | Yeast viability in % [2, 16]: 84% | Yeast flocculation in % [2, 17]: 38% | Yeast viability in % [2, 17]: 82% | Yeast flocculation in % [2, 18]: 0% | Yeast viability in % [2, 18]: 76% | Yeast flocculation in % [2, 19]: 66% | Yeast flocculation in % [2, 20]: 0% | Yeast flocculation in % [2, 21]: 0% | Yeast viability in % [2, 21]: 89% | Yeast flocculation in % [2, 22]: 65%
